These results are taken from patent US20070244190A1, “Neobritannilactone B and acetyl neobritannilactone B” (priority 2006, published 2007).

Test [1] deals with poly-(ADP-ribose) polymerase (PARP) in AGS cells. Kind of test: Western blot of PARP cleavage. The settings on record: for PARP cleavage (85-kDa fragment): AGS cells treated for 24, FIG. 6A. It counts as cell-based, human. As to the method: Western Blotting. The nuclear and cytosolic proteins were isolated from AGS cells after treatment with 60 μM for 0, 3, 6, 9, 12, 18, and 24 h. The total proteins were extracted via the addition of 200 μL of gold lysis buffer (50 mM Tris-HCl, pH 7.4; 1 mM NaF; 150 mM NaCl; 1 mM EGTA; 1 mM phenylmethanesulfonyl fluoride; 1% NP-40; and 10 μg/mL leupeptin) to the cell pellets on ice for 30 min, followed by centrifugation at 10,000 g for 30 min at 4° C. The cytosolic fraction (supernatant) proteins were measured by Bio-Rad protein assay (Bio-Rad Laboratories, Munich, Germany). The samples (50 μg of protein) were mixed with 5× sample buffer containing 0.3 M Tris-HCl (pH 6.8), 25% 2-mercaptoethanol, 12% sodium dodecyl sulfate (SDS), 25 mM EDTA, 20% glycerol, and 0.1% bromophenol blue. The mixtures were boiled at 100° C. for 5 min and were subjected to 12% SDS-polyacrylamide minigels at a constant current of 20 mA. Subsequently, electrophoresis was ordinarily carried out on SDS-polyacrylamide gels. For electrophoresis, proteins on the gel were electrotransferred onto an immobile membrane (PVDF; Millipore Corp., Bedford, Mass.) with transfer buffer composed of 25 mM Tris-HCl (pH 8.9), 192 mM glycine, and 20% methanol. The membranes were blocked with blocking solution containing 20 mM Tris-HCl and then immunoblotted with primary antibodies including, anti-Bcl-XL, anti-β-actin (Transduction Laboratory, Lexington, Ky.), anti-PARP (UBI, Inc., Lake Placid, N.Y.), at room temperature for 1 h. Detection was achieved by measuring the chemiluminescence of blotting agent (ECL, Amersham Corp., Arlington Heights, Ill.), after exposure of the filters to KODAK X-OMAT films.
Activation of caspase-3 leads to the cleavage of a number of proteins, one of which is poly-(ADP-ribose) polymerase (PARP). A hallmark of apoptosis is that PARP (116 kDa) is cleaved to produce an 85-kDa fragment. PARP cleavage was examined in cells treated with NAB or ANAB for 24.

A further test has as its system HT-29 cells. As to the kind of experiment: Cell viability, trypan blue exclusion, 24 h. The following applies: HT-29, 24 h, mean ± SE, n=3, read-out: IC50, growth of human cancer cells. It counts as cell-based. As to the method: (§1) Cell Culture and Chemicals. The COLO 205 and HT 29 cell lines were isolated from human colon adenocarcinoma (ATCC CCL-222 and HTB-38); human promyelocytic leukemia (HL-60) cells were obtained from American Type Culture Collection (Rockville, Md.). The human AGS gastric carcinoma cell lines (CCRC 60102) were obtained from the Food Industry Research and Development Institute (Hsinchu, Taiwan). Cell lines were grown at 37° C. in 5% CO2 dioxide atmosphere in RPMI for COLO 205, HT-29, and HL-60 cells and DMEM/F12 for AGS cells, all supplemented with 10% heat-inactivated fetal bovine serum (GIBCO BRL, Grand Island, N.Y.) (100 units/mL of penicillin, 100 μg/mL of streptomycin), and 2 mM L-glutamine (GIBCO BRL). Selected compounds were dissolved in dimethyl sulfoxide (DMSO). Propidium iodide was obtained from Sigma Chemical Co. (St. Louis, Mo.).
(§2) Determination of Cell Viability. Human cancer cells were treated either with DMSO (0.01%) or the selected compounds (5-100 μM). Cell viability was determined at 24 h based on trypan blue exclusion assay. The viability percentage was calculated based on the percentage of unstained cells. Suspensions of cells were diluted 1:1 with 0.5% trypan blue solution. Stained and unstained cells were counted in a hemocytometer.

Test [2] deals with AGS cells. Kind of test: Cell viability, trypan blue exclusion, 24 h. It counts as cell-based. The settings on record: mean ± SE, n=3, read-out: IC50, growth of human cancer cells. As to the method:
as §1, §2

Another test relates to COLO 205 cells. As to the kind of experiment: Cell viability, trypan blue exclusion, 24 h. Type of test: cell-based. The settings on record: COLO 205, 24 h, mean ± SE, n=3, read-out: IC50, growth of human cancer cells. As to the method:
as §1, §2

The next test concerns HL-60 cells. Kind of test: Cell viability, trypan blue exclusion, 24 h. It counts as cell-based. The following applies: HL-60, 24 h, mean ± SE, n=3, read-out: IC50, growth of human cancer cells. As to the method: as §1, §2
Test [3] relates to AGS cells. Kind of test: DNA fragmentation by agarose gel electrophoresis. Type of test: cell-based, human. The settings on record: 15 μM, 24 h, FIG. 4. As to the method:
DNA Extraction and Electrophoresis Analysis. The AGS human cancer cells were harvested, washed with phosphate-buffered saline (PBS), and then lysed with digestion buffer containing 0.5% sarkosyl, 0.5 mg/mL proteinase K, 50 mM tris(hydroxy methyl)aminomethan (pH 8.0), and 10 mM EDTA at 56° C. overnight and treated with RNase A (0.5 μg/mL) for 3 h at 56° C. The DNA was extracted by phenol/chloroform/isoamyl (25:24:1) before loading and was analyzed by 2% agarose gel electrophoresis. The agarose gels were run at 50 V for 120 min in Tris-borate/EDTA electrophoresis buffer (TBE). Approximately 20 μg of DNA was loaded in each well and visualized under UV light, and photographed.
Physiological cell death is characterized by apoptotic morphology, including chromatin condensation, membrane blebbing, internucleosome degradation of DNA, and apoptotic body formation. Nucleosomal DNA ladders visible on agarose gel after staining with ethidium bromide are typical of apoptotic cell samples. To investigate whether the cytotoxic effects of NAB and ANAB observed in AGS cells were due to the presence of apoptotic cell death, cells were treated with […] (0-25 μM) for 24 h and DNA fragmentation analyses were performed. […] FIG. 5.

Test [4] deals with AGS cells. As to the kind of experiment: Sub-G1 flow cytometry (Example 3). The following applies: 24 h, FIG. 3. It counts as cell-based, human. How it is done: Flow Cytometry. AGS cells (2×10^5) were cultured in 60-mm Petri dishes and incubated for 24 h. The cells were then harvested, washed with PBS, resuspended in 200 μL of PBS, and fixed in 800 μL of iced 100% ethanol at −20° C. After being left to stand overnight, the cell pellets were collected by centrifugation, resuspended in 1 mL of hypotonic buffer (0.5% Triton X-100 in PBS and 0.5 μg/mL RNase), and incubated at 37° C. for 30 min. Next, 1 mL of propidium iodide solution (50 μg/mL) was added, and the mixture was allowed to stand on ice for 30 min. Fluorescence emitted from the propidium iodide-DNA complex was quantitated after excitation of the fluorescent dye by FACScan cytometry (Becton Dickinson, San Jose, Calif.).
The cytotoxic effects of NAB and ANAB in AGS cells were analyzed to assess their consistency with the specific changes that characterize apoptosis, such as DNA fragmentation. To investigate the induction of a sub-G1 cell population, the DNA content of AGS cells treated with various concentrations of NAB and ANAB was analyzed by flow cytometry. Cells were treated with NAB and ANAB, and stained with propidum iodide.
For orientation: A flow cytometer gives signals particle by particle.

Take `C=C1C(=O)O[C@H]2/C=C(\C)CC/C=C(\C)C[C@H](OC(C)=O)[C@@H]12` [Compound 4, acetyl neobritannilactone B]: the “PARP cleavage over time” value in test [1] (15 μM, time course, FIG. 6B) was “time-dependent proteolytic cleavage of PARP”. In addition, in test [1], the “PARP cleavage (85-kDa fragment)” value is reported as “PARP proteolytic fragment was found”. Also, the IC50 – broadly, the midpoint of a concentration-inhibition curve – in the test on HT-29 cells worked out at 57 µM; in the test on AGS cells [2], 5.4 µM; in the test with COLO 205 cells, 14.7 µM; with HL-60 cells it was 16.2 µM. In addition, in the test on AGS cells [3], the “DNA fragmentation (DNA ladders)” value is “significant DNA ladders were observed”. Also, the “percentage of apoptotic AGS cells” value with AGS cells [4] (5 μM) is on record as 24%; in the test with AGS cells [4] (10 μM), 64%; in the test with AGS cells [4] (15 μM), 81%; with AGS cells [4] (25 μM) it was 92%.
As for `C=C1C(=O)OC2C=C(C)CCC=C(C)CC(O)C12` (stereo not drawn) [Compound 3, 4-hydroxy-3α,4,5,8,9,11α-hexahydro-6,10-dimethyl-3-methylene-cyclodeca[b]furan-2(3H)-one], the “PARP cleavage (85-kDa fragment)” value in test [1] is given as “PARP proteolytic fragment was found”. Besides, the IC50 in the test on HT-29 cells came to 56.1 µM; with AGS cells [2] it was 21.4 µM; in the test on COLO 205 cells it was 14.3 µM; with HL-60 cells it was 27.4 µM. Besides, the “percentage of apoptotic AGS cells” value in the test with AGS cells [4] (5 μM) is 14%; with AGS cells [4] (10 μM), 27%; with AGS cells [4] (15 μM), 63%; in the test with AGS cells [4] (25 μM), 86%.
